How the values were obtained:
Type in all cases: in vivo
wt mice [1] = assay: Rotarod, motor coordination; settings: chronic ip 1mg/kg for twenty consecutive days
Description: (§1) All behavioral testing were conducted during the light phase (between 09:00 and 14:00 am) in compliance with the Institutional Animal Care and Use Committee of the University of Nice-Sophia Antipolis (permission number 010344.01 from the French "Ministère de l'Enseignement Supérieur et de la Recherche" granted to Dr. Joëlle Chabry). • Forced Swimming test (FST) - Mice were placed an inescapable transparent tank (20cm diameter, 30cm deep) filled with water (23°C ± 0.5) for six minutes as previously described by Porsolt et al. (1977). The immobility duration, as an index of the resignation, was timed during the last four minutes of the test. A mouse was considered immobile when it remained floating with only slight movements to keep its head out of the water. • Open-field test (OF) - Locomotor activity was determined using open-field (OF) activity. […] Twenty-four hours later, the latency to fall, an index of the motor coordination, was recorded on accelerating rod (from 10 to 40 rpm/min). • Light & Dark test (L&D) - The L&D place preference test was used to assess the anxiety-like behavior. […] To initiate testing, mice were placed into the light side and activity was recorded for 5 minutes. […] The amount of water and 1% sucrose solution was measured twenty-four hours later. […]

wt mice [2] = assay: Open-field test (OF), locomotor activity; settings: chronic ip 1mg/kg for twenty consecutive days, 10 minutes recording
Description: as §1

[3] = tested on: pro-inflammatory cytokines (IL1β, IL6, TNFα, IFNγ); assay: Pro-inflammatory cytokines measurement in brain areas (ECL-based assay); settings: corticosterone-treated mice, chronic AdipoRon
Description: Data were digitized at 5-10 kHz using a Digidata interface coupled to a microcomputer running pClamp 9 (Axon Instruments, USA). Current-clamp data were digitized at 0.5 kHz using the same interface. Potentials were digitally filtered at 1-3 kHz. Average data were expressed as mean ± SEM, n = number of neurons, N = number of mice. • Western blot analysis - Total proteins were extracted from mouse hypothalamus by homogenization in lysis buffer (50mM Tris-HCl, pH7.5, 150mM NaCl, 5mM EDTA containing 0.5% Triton X-100 and 0.5% sodium deoxycholate with a coktail of protease and phosphatase inhibitors). Equal amounts of total proteins (50µg) determined by the Bradford method (BioRad) were separated onto 12% SDS-PAGE, then transferred on nitrocellulose membrane (Schleicher & Schuell, Dassel, Germany). Blots were incubated in PBS 0.1% Tween, 2% BSA with antibodies directed against phospho-AMPKα (Thr172), total AMPK (Cell Signaling), and then with the appropriate HRP-secondary antibody. […] IFNγ, IL1β, IL6, and TNFα, levels were measured using an electro-chemo-luminescence (ECL)-based assay (U-plex, MesoScaleDiscovery) following manufacturer instructions. Results were standardized according to the protein concentration of each sample determined by the Bradford method. • Kynurenine pathway metabolites measurement - Plasma levels of L-kynurenin (L-Kyn), tryptophan (Trp), kynurenin acid (Kyn ac), 5-HT and 5-HIAA were determined as follows: 25µl of plasma was deproteinated with 150µl of cold MeOH. […] Determination of L-Kyn, Trp, Kyn ac, 5-HT and 5-HIAA levels, done in triplicate, were determined by liquid chromatography coupled to MS-MS analysis as previously described with minor modifications (Fuertig, Ceci et al. 2016). • Statistical Analysis - Statistical analyses were performed using GraphPad Prism 4.0 software. Biological parameters and q-PCR data were analyzed using a one-way (treatment) or two-way (pretreatment X treatment) analysis of variance, followed by a post-hoc multiple comparison procedure using the Dunnett's method. […]

## O=C(COc1ccc(C(=O)c2ccccc2)cc1)NC1CCN(Cc2ccccc2)CC1 [AdipoRon, 2-(4-Benzoylphenoxy)-N-[1-(phenylmethyl)-4-piperidinyl]-acetamide]
Wt mice [1]
  motor coordination (rotarod): did not significantly modify
Wt mice [2]
  mean speed in the OF test: did not significantly modify
  total distance traveled in the OF test: did not significantly modify
[3]; hippocampus
  corticosterone-induced cytokines differences (IFNγ): abolished
[3]; hypothalamus
  corticosterone-induced cytokines differences (IL1β, TNFα, IFNγ): abolished
[3]; prefrontal cortex
  corticosterone-induced cytokines differences (IL1β, IL6, TNFα): abolished
